These results are taken from patent US11084847B2, “Polyamide compound and use thereof” (SICHUAN KELUN-BIOTECH BIOPHARMACEUTICAL CO., LTD., priority 2016, dated 2021).

The target in one series is MOR (Homo sapiens, UniProt P35372). Kind of series: Opioid receptor selectivity, radioligand competition binding (3H-DAMGO) on cell membranes. How it is done: (§1) The selectivity of the compounds of the invention for κ opioid receptors was determined by measuring the inhibitory effect of the compounds of Examples on the […] of KOR, MOR, and DOR.
(§2) The compounds of Examples at different concentrations were incubated with the cell membrane with high expression of KOR, MOR, DOR and the corresponding radioligand (KOR: 3H-diprenophrine; MOR: 3H-DAMGO; DOR: 3H-DADLE) for 1 h, the compounds of Examples competed with the radioligands for binding to KOR, MOR, DOR. After the incubation, Cell harvest was used to collect cell membranes onto a Unifilter-96 GF/C filter plate, and the unbound radioligands were washed away. The plate was placed in a 50-degree oven for 1 h, and finally the scintillation solution Microscint 20 cocktail was added and the isotope signal was detected by MicroBeta2 Reader.
(§3) According to the intensity of the isotope signal at different concentrations, the IC50 was calculated by means of fitting with a four-parameter equation, and the Ki value was calculated.
(§4) The Ki value was calculated according to the formula Ki=IC50/(1+[radioligand]/Kd), and Kd was the equilibrium dissociation constant of radioligand.

Series [1] can be described thus: Ability of compounds to pass through the blood-brain barrier (plasma and brain tissue concentration). The series is classed as in vivo. Particulars: rat, male rats, iv 1 mg/kg; for concentration at 5 min: 5 min after administration; for concentration at 15 min: 15 min after administration; for concentration at 30 min: 30 min after administration; for concentration at 60 min: 60 min after administration. How it is done:
After peripheral intravenous administration of the compound of each Example to the animal, samples of peripheral plasma and brain tissue were taken to determine the concentration of the compound in the peripheral plasma and brain tissue.
After intravenously injected with the compound of Example 5 at 1 mg/kg to male rats, samples of plasma and brain tissues were taken at various time points, and the contents of the test compound in the peripheral plasma and brain tissue were determined.

The nature of series [2]: Pharmacokinetic (PK) study in rats. The series is classed as in vivo. Particulars: male SD rats, intravenous, 1 mg/kg; for AUC(0-t) / Cmax / Vd / half-life: rat, plasma. The procedure:
The pharmacokinetic profile of the compounds of Examples was studied by intravenous administration of the compounds of Examples to male SD rats. The dose for IV administration was 1 mg/kg, and the solvent was 5% DMSO: 5% solutol: 90% physiological saline. After IV administration, blood samples were collected at different time points for PK study. Plasma were treated by protein precipitation and then analyzed by LC-MS/MS.
In LC-MS/MS, mass spectrum was API 5500, and liquid chromatography was Shimadzu LC-30AD system. The column used for the test groups of Compound 3 and Compound 4 was Thermo C18 column (4.6 mm×100 mm, 3 μm); for mobile phases, phase A was water+0.1% formic acid, and phase B was methanol; the flow rate was 0.8 mL/min, and the column temperature was 40° C. The column used for the test group of Compound 5 was Agela AQ C18 column (2.1 mm×50 mm, 1.9 μm); for mobile phases, phase A was water+0.05% formic acid+5 mM acetic acid ammonium, and phase B was methanol+0.05% formic acid; the flow rate was 0.6 mL/min, and the column temperature was 40° C. The ion source used was the ESI source in positive ion mode, and the scanning mode was Multiple Reaction Monitoring (MRM).

The next series concerns the target DOR (Homo sapiens, UniProt P41143). Kind of series: Opioid receptor selectivity, radioligand competition binding (3H-DADLE) on cell membranes. The procedure: as §1, §2, §3, §4
Another series deals with KOR (Homo sapiens, UniProt P41145). Kind of series: Opioid receptor selectivity, radioligand competition binding (3H-diprenophrine) on cell membranes. Particulars: for KOR selectivity (in words): KOR versus MOR and DOR binding. How it is done:
as §1, §2, §3, §4

Series [3] has as its target T1, human κ-opioid receptor (KOR) (Homo sapiens, UniProt P41145).
T1 construct: expressed in transfected cells
Kind of series: κ-opioid receptor agonistic effect (inhibition of adenylate cyclase, cAMP assay). It is filed as cell-based. The procedure:
The efficacy of the compounds of the invention as κ-opioid receptor agonists was determined by measuring the ability of the compounds of Examples to inhibit adenylate cyclase activity.
Cell culture: hamster ovary cells CHO stably expressing human κ-opioid receptor (KOR) gene were cultured in MEMα plus nucleosides medium (Invitrogen) containing 5% FBS.
Stimulation: the test compound was 4-fold diluted in a gradient manner to obtain 11 concentrations, and 100 nl of each was transferred to a 384-well plate, and then a stimulating solution (5 uL) containing NKH477 (Tocris) was added; the cells were digested, re-suspended, and counted; and then the cells (5 uL) were added to wells, mixed gently, and incubated at 37° C. for 30 min.
Detection: cAMP Assay Kit (Cisbio) was used, cAMP-D2 and Anti-cAMP-Cryptate were added separately, and the resultant mixture was incubated for 1 h at room temperature. The plate was read using envision (Perkin Elmer) and EC50 was obtained by means of fitting with a four-parameter equation.

The next series deals with male ICR mice. Kind of series: Acetic acid-induced writhing test in mice. The series is classed as in vivo. The settings on record: for analgesic effect (in words): acetic acid-induced writhing, mice, iv; for ED50: iv administration 15 min before 0.6% acetic acid ip, writhes counted within 15 min. Set-up: ED50: unit not given here. How it is done:
The analgesic effect of the compound of the invention was evaluated by measuring the ED50 of the compounds of Examples in the acetic acid-induced writhing test in mice.
The commercial glacial acetic acid solution was diluted with physiological saline to 0.6% glacial acetic acid solution. The male ICR mice were randomly separated into the drug group and the model group (to which physiological saline was administration). 15 minutes after iv administration, 0.6% acetic acid solution was intraperitoneally injected at 10 ml/kg, and the mice was immediately recorded with DV camera for 15 min. After the recording, the number of writhes of the mice within 15 min was counted from the video by blind method, the inhibition rate for the writhes was calculated according to Formula (I), and the ED50 of the compound was calculated according to Formula (II).
(I) The inhibition rate for the writhes was calculated by the formula: Inhibition rate (%)=(the number of writhes in a model group−the number of writhes in a drug group)/the number of writhes in a model group*100.
(II) The ED50 was calculated by the formula:
[formula] wherein Xm was the logarithm of the highest dose, d was the difference in the logarithm of two adjacent doses, p was the inhibition rate for each dose group, pm was the highest-dose inhibition rate, and pn was the lowest-dose inhibition rate.

[4] abbreviates: brain, read-out: Concentration in brain tissue.
Setting [5] is: plasma, read-out: Concentration in peripheral plasma.

SMILES strings stand for the structures. Like-named read-outs stand apart in the source and are kept apart here.

Regarding `COCCOCCNCCCC[C@@H](NC(=O)[C@@H](CC(C)C)NC(=O)[C@@H](Cc1ccccc1)NC(=O)[C@H](N)Cc1ccccc1)C(=O)N1CCC(N)(C(=O)O)CC1` [Example 5, 4-amino-1-((R)-2-((R)-2-((R)-2-((R)-2-amino-3-phenylpropanamido)-3-phenylpropanamido)-4-methylpentanamido)-6-((2-(2-methoxyethoxy)ethyl)amino)hexanoyl)piperidin-4-carboxylic acid], the Ki at MOR (Ki=IC50/(1+[radioligand]/Kd), read-out: MOR Ki) was above 7180 nM. Moreover, at MOR (radioligand 3H-DAMGO, 1 h incubation, read-out: MOR IC50), the IC50 is above 20000 nM. In addition, in series [1] (setting [4]), the concentration at 5 min is 0 ng/mL, the concentration at 15 min was found to be 0 ng/mL, the concentration at 30 min was found to be 0.2 ng/mL and the concentration at 60 min amounted to 0 ng/mL. Besides, in series [1] (setting [5]), the concentration at 5 min was found to be 1310 ng/mL, the concentration at 15 min was 716 ng/mL, the concentration at 30 min was determined as 386 ng/mL and the concentration at 60 min came to 136 ng/mL. In addition, in series [2], the “pharmacokinetic profile (in words)” value was “good exposure amount and Cmax”; the AUC(0-t) was found to be 783 ng·h/mL; the Cmax was 1690 ng/mL; the Vd turned out to be 0.53 L/kg. In series [2], this compound showed a half-life of 16.8 min. The Ki on DOR (Ki=IC50/(1+[radioligand]/Kd), read-out: DOR Ki) is above 12000 nM. The IC50 on DOR (radioligand 3H-DADLE, 1 h incubation, read-out: DOR IC50) is above 20000 nM. The “KOR selectivity (in words)” value at KOR is “excellent KOR selectivity”. The Ki on KOR (Ki=IC50/(1+[radioligand]/Kd), read-out: KOR Ki) was 0.02 nM. The IC50 at KOR (radioligand 3H-diprenophrine, 1 h incubation, read-out: KOR IC50) was 0.05 nM. The EC50 in series [3] (CHO cells stably expressing human KOR, NKH477-stimulated cAMP, four-parameter fit, read-out: ED50 (the source's name)) worked out at 0.05 nM. For the same compound, in the series with male ICR mice, the “analgesic effect (in words)” value was “significant analgesic effect” and the ED50 came to 0.017.

At MOR, `COCCOCCOCCOCCOCCOCCOCCNCCCC[C@@H](NC(=O)[C@@H](CC(C)C)NC(=O)[C@@H](Cc1ccccc1)NC(=O)[C@H](N)Cc1ccccc1)C(=O)N1CCC(N)(C(=O)O)CC1` [Example 6, 4-amino-1-((R)-28-((R)-2-((R)-2-((R)-2-amino-3-phenylpropanamido)-3-phenylpropanamido)-4-methylpentanamido)-2,5,8,11,14,17,20-heptaoxa-23-azanonacosan-29-oyl)piperidin-4-carboxylic acid] yielded an IC50 above 20000 nM and a Ki above 7180 nM. In series [2], the “pharmacokinetic profile (in words)” value was “good exposure amount and Cmax”; the AUC(0-t) amounted to 2180 ng·h/mL; the highest level (Cmax) was 3660 ng/mL; the Vd was determined as 0.2 L/kg. Besides, the half-life in series [2] is 17.4 min. Besides, at DOR, the IC50 is above 20000 nM and the inhibition constant Ki was above 12000 nM. For the same compound, on KOR, the IC50 is 0.33 nM, the Ki stood at 0.11 nM and the “KOR selectivity (in words)” value is “excellent KOR selectivity”. Further, in series [3], the EC50 amounted to 0.11 nM. Further, in the series on male ICR mice, the “analgesic effect (in words)” value is listed as “significant analgesic effect” and the ED50 is given as 0.036.
